# Source: paper PMC11154582, “Modeling the Blood-Brain Barrier Permeability of Potential Heterocyclic Drugs via Biomimetic IAM Chromatography Technique Combined with QSAR Methodology” (Molecules, 2024)
# Where two headings read alike, the source gives them in different places.
# Legend:
# [1] = IAM column, cited from earlier work
# [2] = Biomimetic IAM chromatography (log kw, IAM); assay type: physicochemical; conditions: IAM.PC.DD2 column, buffered acetonitrile, pH 7.4, 25 °C, extrapolated to buffer
# Description: High performance liquid chromatography (HPLC) measurements were performed on a Shimadzu Vp liquid chromatographic system (Shimadzu, Izabelin, Poland). This instrument was equipped with LC 10AT pump, SPD 10A ultraviolet-visible detector, SCL 10A system controller, CTO-10 AS chromatographic oven, and a Rheodyne injector valve with a 20 μL loop. As the stationary phase Regis IAM.PC.DD2 column, 100 × 4.6 mm i.d., 10 μm (Morton Grove, IL, USA) was applied.
# Buffered acetonitrile mixtures were used as effluents. Acetonitrile concentration, expressed as a volume fraction, was varied within a range from 0.2 to 0.5, with a constant step of 0.1. The buffer was prepared from 0.01 mol L^−1 solutions of Na2HPO4 and citric acid, and a pH value of 7.4 was fixed before mixing with an organic modifier. The flow rate was 1.3 mL min^−1. Each compound sample was dissolved in acetonitrile to obtain a concentration of 0.005 mg mL^−1, and each solute peak was detected under ultraviolet light at a wavelength of λmax = 254 nm. Each measurement was performed at a constant temperature (25 °C) at least three times. The dead time values were measured from sodium chloride peaks.
# From among 126 heterocyclic compounds evaluated in this work (Table 1), 89 structures have been investigated previously on the IAM column: these are molecules from groups III, IV, V, VI, VII, VIII, IX, XI, XIII, and XV [21, 22, 23]. The remaining ones, i.e., 37 compounds from groups I, II, X, XII and XIV, were tested in this study for the first time using the biomimetic IAM chromatographic technique. To calculate the log kw values (i.e., the logarithms of retention parameter in the buffer as the mobile phase), the retention parameters, logs k (k = (tr − t0)/t0; where tr is the solute retention time, and t0 is a dead time), that were measured for all tested compounds, were used according to Soczewiński-Wachtmeister’s equation (Equation (5)): (5) log k=logtr−t0/t0=log kw−sφ where φ denotes the volume fraction of acetonitrile as organic modifier in the mobile phase, and kw means the retention parameter corresponding to buffer as the mobile phase. The log kw values were evaluated as linear regression coefficients (Table 2).
Structure (SMILES),"log kw, IAM ([1]; ref [23])",other results
Cc1ccccc1N1CCn2c1nnc(-c1ccccc1)c2=O [Compound 82],1.53,
O=c1c(-c2ccc([N+](=O)[O-])cc2)nnc2n1CCN2c1cccc(Cl)c1 [Compound 99],,"log kw, IAM [2]: 2.02"
Cc1ccccc1N1CCn2c1nnc(-c1cccs1)c2=O [Compound 73],,"log kw, IAM [2]: 1.54"
O=c1c(-c2ccccc2)nnc2n1CCN2c1ccccc1 [Compound 81],1.91,
Cc1cccc(N2CCn3c2nnc(-c2ccco2)c3=O)c1C [Compound 64],1.42,
O=c1c(Cc2cccc(Cl)c2)nnc2n1CCN2c1ccc(Cl)cc1 [Compound 120],3.15,
O=c1c(Cc2ccc(Cl)cc2)nnc2n1CCN2c1ccc(Cl)cc1 [Compound 121],3.17,
CCc1nnc2n(c1=O)CCN2c1ccc(C)cc1 [Compound 24],1.00,
CCOc1ccc(N2CCn3c2nnc(CC(=O)NN)c3=O)cc1 [Compound 59],,"log kw, IAM [2]: 0.06"
CC(C)c1nnc2n(c1=O)CCN2c1cccc(Cl)c1 [Compound 32],,"log kw, IAM ([1]; ref [22]): 1.49"
COc1ccccc1N1CCn2c1nnc(-c1ccc([N+](=O)[O-])cc1)c2=O [Compound 96],,"log kw, IAM [2]: 1.78"
Cc1ccc(N2CCn3c2nnc(-c2ccc([N+](=O)[O-])cc2)c3=O)cc1 [Compound 95],,"log kw, IAM [2]: 1.83"
O=c1c(-c2cccs2)nnc2n1CCN2c1ccccc1Cl [Compound 77],,"log kw, IAM [2]: 1.75"
O=c1c(-c2ccco2)nnc2n1CCN2c1c(Cl)cccc1Cl [Compound 71],1.70,
COc1ccc(N2CCn3cnnc32)cc1 [Compound 3],,"log kw, IAM [2]: 0.10"
CCOC(=O)Cc1nnc2n(c1=O)CCN2c1ccc(Cl)cc1 [Compound 49],2.11,
O=c1c(-c2ccc([N+](=O)[O-])cc2)nnc2n1CCN2c1ccc(Cl)cc1 [Compound 100],,"log kw, IAM [2]: 2.52"
O=c1c(-c2cccs2)nnc2n1CCN2c1ccc(Cl)cc1 [Compound 79],,"log kw, IAM [2]: 1.53"
Cc1ccc(N2CCn3c2nnc(C(F)(F)F)c3=O)cc1 [Compound 17],,"log kw, IAM ([1]; ref [22]): 1.25"
NNC(=O)Cc1nnc2n(c1=O)CCN2c1ccccc1 [Compound 56],,"log kw, IAM [2]: 0.40"
Cc1cccc(N2CCn3c2nnc(-c2ccccc2)c3=O)c1C [Compound 88],1.85,
CCOC(=O)c1nnc2n(c1=O)CCN2c1ccc(Cl)cc1 [Compound 38],,"log kw, IAM ([1]; ref [22]): 1.12"
Cc1ccc(N2CCn3c2nnc(Cc2ccccc2)c3=O)cc1 [Compound 106],2.15,
O=c1c(Cc2ccccc2Cl)nnc2n1CCN2c1ccc(Cl)cc1 [Compound 119],3.22,

Structure (SMILES),"log kw, IAM ([1]; ref [23])",other results
O=c1c(Cc2cccc(Cl)c2)nnc2n1CCN2c1ccccc1 [Compound 104],2.48,
COc1ccc(N2CCn3c2nnc(-c2ccco2)c3=O)cc1 [Compound 66],1.19,
O=c1c(-c2cccs2)nnc2n1CCN2c1ccccc1 [Compound 72],,"log kw, IAM [2]: 1.64"
CCOC(=O)Cc1nnc2n(c1=O)CCN2c1ccc(C)cc1 [Compound 46],1.70,
COc1ccccc1N1CCn2c1nnc(-c1ccccc1)c2=O [Compound 85],1.47,
CCOC(=O)c1nnc2n(c1=O)CCN2c1ccccc1 [Compound 35],,"log kw, IAM ([1]; ref [22]): 0.48"
Cc1ccc(Cc2nnc3n(c2=O)CCN3c2ccc(C)cc2)cc1 [Compound 107],2.51,
CCOC(=O)c1nnc2n(c1=O)CCN2c1ccc(C)cc1 [Compound 36],,"log kw, IAM ([1]; ref [22]): 1.93"
O=c1c(Cc2ccccc2)nnc2n1CCN2c1ccccc1 [Compound 102],3.26,
O=c1c(C(F)(F)F)nnc2n1CCN2c1cccc(Cl)c1 [Compound 20],,"log kw, IAM ([1]; ref [22]): 1.66"
O=c1c(CCc2ccccc2)nnc2n1CCN2c1ccccc1Cl [Compound 124],1.81,
COc1ccccc1N1CCn2c1nnc(-c1ccco1)c2=O [Compound 65],1.11,
O=c1c(Cc2ccc(Cl)cc2)nnc2n1CCN2c1ccccc1 [Compound 105],2.39,
CCOc1ccc(N2CCn3c2nnc(Cc2cccc(Cl)c2)c3=O)cc1 [Compound 115],2.73,
Cc1ccc(N2CCn3c2nnc(Cc2ccc(Cl)cc2)c3=O)cc1 [Compound 111],2.81,
O=c1c(CCc2ccccc2)nnc2n1CCN2c1ccc(Cl)c(Cl)c1 [Compound 126],3.40,
COC(=O)Cc1nnc2n(c1=O)CCN2c1ccccc1 [Compound 40],0.81,
CCc1nnc2n(c1=O)CCN2c1ccccc1 [Compound 23],0.55,
CCOC(=O)Cc1nnc2n(c1=O)CCN2c1ccccc1OC [Compound 47],0.91,
O=c1c(-c2ccco2)nnc2n1CCN2c1ccccc1 [Compound 61],1.29,
O=c1c(-c2ccco2)nnc2n1CCN2c1ccc(Cl)c(Cl)c1 [Compound 70],3.23,
CCOc1ccc(N2CCn3c2nnc(CC(=O)OC)c3=O)cc1 [Compound 43],1.42,
O=c1c(-c2ccco2)nnc2n1CCN2c1ccccc1Cl [Compound 67],1.27,
Cc1ccc(N2CCn3c2nnc(Cc2cccc(Cl)c2)c3=O)cc1 [Compound 110],2.78,

Structure (SMILES),"log kw, IAM ([1]; ref [23])",other results
Cc1ccccc1N1CCn2c1nnc(Cc1ccccc1Cl)c2=O [Compound 117],2.02,
CCOc1ccc(N2CCn3c2nnc(-c2ccccc2)c3=O)cc1 [Compound 87],2.14,
Cc1ccc(N2CCn3c2nnc(C(=O)NN)c3=O)cc1 [Compound 52],,"log kw, IAM ([1]; ref [21]): 0.16"
COC(=O)Cc1nnc2n(c1=O)CCN2c1ccc(Cl)cc1 [Compound 44],1.82,
O=c1c(-c2ccco2)nnc2n1CCN2c1cccc(Cl)c1 [Compound 68],2.08,
CCc1nnc2n(c1=O)CCN2c1ccc(Cl)cc1 [Compound 27],1.24,
O=c1c(-c2ccco2)nnc2n1CCN2c1ccc(Cl)cc1 [Compound 69],2.02,
CCc1nnc2n(c1=O)CCN2c1cccc(Cl)c1 [Compound 26],0.84,
Cc1ccccc1N1CCn2c1nnc(-c1ccco1)c2=O [Compound 62],0.96,
O=c1c(C(F)(F)F)nnc2n1CCN2c1ccc(Cl)c(Cl)c1 [Compound 22],,"log kw, IAM ([1]; ref [22]): 2.29"
O=c1c(CCc2ccccc2)nnc2n1CCN2c1ccc(Cl)cc1 [Compound 125],2.68,
Cc1ccc(N2CCn3c2nnc(-c2ccccc2)c3=O)cc1 [Compound 84],2.22,
O=c1c(C(F)(F)F)nnc2n1CCN2c1ccc(Cl)cc1 [Compound 21],,"log kw, IAM ([1]; ref [22]): 1.58"
CCOc1ccc(N2CCn3c2nnc(Cc2ccc(C)cc2)c3=O)cc1 [Compound 113],2.43,
Cc1ccc(N2CCn3c2nnc(C(C)C)c3=O)cc1 [Compound 30],,"log kw, IAM ([1]; ref [22]): 1.05"
Cc1ccc(N2CCn3c2nnc(Cc2cccc(C)c2)c3=O)cc1 [Compound 108],2.59,
Cc1ccc(N2CCn3c2nnc(CCc2ccccc2)c3=O)cc1 [Compound 123],2.41,
CCc1nnc2n(c1=O)CCN2c1ccccc1Cl [Compound 25],0.80,
Cc1ccc(N2CCn3c2nnc(-c2ccco2)c3=O)cc1 [Compound 63],1.69,
O=c1c(Cc2ccccc2)nnc2n1CCN2c1ccc(Cl)cc1 [Compound 118],2.52,
O=c1c(-c2ccccc2)nnc2n1CCN2c1cccc(Cl)c1 [Compound 90],2.64,
CC(C)c1nnc2n(c1=O)CCN2c1ccccc1 [Compound 29],,"log kw, IAM ([1]; ref [22]): 0.76"
O=c1c(CCc2ccccc2)nnc2n1CCN2c1ccccc1 [Compound 122],2.07,
